Measurements from patent US20110275559A1, “Long-Acting Y2 and/or Y4 Receptor Agonists” (Novo Nordisk A/S, priority 2008, published 2011).
Like-named read-outs stand apart in the source and are kept apart here. *1 amine or outer side, *2 acyl side, *3 side chain or, on linkers, in order; H or OH if unused. Where a SMILES comes first, the peptide text is derived from it. Side-chain parts run from the residue outwards. The star is where a group is joined. C20 diacid = O=C(O)CCCCCCCCCCCCCCCCCCC(=O)*; C18 diacid = O=C(O)CCCCCCCCCCCCCCCCC(=O)*; γGlu = O=C(O)[C@H](CCC(=O)[*:2])N[*:1]; Trx = NC[C@H]1CC[C@H](C(=O)O)CC1; AEEA = NCCOCCOCC(=O)O

Assays:
[1] = Mini-pig PK assay (plasma half-life); conditions: Göttingen, minipig, iv
Procedure, shortened: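 Catheterised mini-pigs received compound i.v. at 10 nmol/kg in pH 4.0 phosphate/NaCl/tween vehicle, or alternatively i.v. or s.c. at 1–30 nmol/kg in pH 8.0 K2HPO4/tween. Stabilised plasma was sampled up to 13 days and assayed by LC-MS (LLOQ 2 nM). Half-life came from non-compartmental analysis of individual animal profiles.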

[2] = molecular target: T1, Y2 receptor (Homo sapiens, UniProt P49146); assay: Y2 receptor ACTOne based FLIPR assay (cAMP biosensor); assay type: cell-based
T1 construct: host or cells: ACTOne HEK-293 cells
T1 sequence (P49146 1-381): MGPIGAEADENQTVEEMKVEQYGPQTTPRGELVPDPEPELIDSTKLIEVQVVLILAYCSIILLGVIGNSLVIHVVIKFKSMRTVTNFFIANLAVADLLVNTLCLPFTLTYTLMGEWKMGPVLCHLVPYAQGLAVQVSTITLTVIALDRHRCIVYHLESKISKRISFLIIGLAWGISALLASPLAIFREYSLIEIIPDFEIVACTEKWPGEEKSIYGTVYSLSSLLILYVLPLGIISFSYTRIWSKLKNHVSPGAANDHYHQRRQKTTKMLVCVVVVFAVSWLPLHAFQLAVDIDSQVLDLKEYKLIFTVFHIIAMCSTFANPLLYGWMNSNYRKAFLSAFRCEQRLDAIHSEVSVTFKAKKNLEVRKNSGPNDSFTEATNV

[3] = molecular target: T2, Y4 receptor (Homo sapiens, UniProt P50391); assay: Y4 receptor ACTOne based FLIPR assay (cAMP biosensor); assay type: cell-based
T2 construct: host or cells: ACTOne HEK-293 cells
Description: ACTOne™ is an easily scaleable cAMP biosensor HTS platform for measurement of Gs and Gi coupled 7™ receptor signalling from BD Biosciences (San Jose, Calif.). The cells express a biosensor developed around a modified rat olfactory cyclic nucleotide gated (CNG) calcium channel—a fairly non-discriminatory ion channel that responds to cAMP and cGMP. The CNG has been engineered to be cAMP selective and thus function as a cAMP responsive biosensor that signals through calcium or membrane potential responsive dyes. Y2 or Y4 receptor expressing ACTOne HEK-293 cells are obtained from BD Biosciences. The cells are loaded with a calcium responsive dye that only distributes in the cytoplasm. Probenecid, an inhibitor of the organic anion transporter is added to prevent the dye from leaving the cell. A phosphodiesterase inhibitor is added to prevent formatted cAMP from being degraded. Isoproterenol (an β1/β2 agonist) is added to activate the adenylate cyclase. When an Y2 or Y4 receptor agonist is added, the adenylate cyclase is inactivated. The decreased calcium concentration in the cytoplasm is then detected as an increase in fluorescence. Together with the test substance, Isoproterenol at a concentration matching EC80, is added to all wells. • The cells are plated out in Greiner 384-well plates. […] The plates are covered with tinfoil to avoid light (the dye can be excited by the daylight, which results in higher baseline and variation). • The FLIPR (FLIPRtetra from Molecular Devices, CA, USA) adds 1 μl sample and 1 μl isoproterenol (0.05 μM final concentration) at the same time. • The fluorescence signal from the wells is measured 330 seconds after sample addition on the FLIPR.

[4] = Table 2, PP analogues, ACTOne HEK-293 cells, read-out: Y2 cAMP EC50
[5] = Table 2, PP analogues, ACTOne HEK-293 cells, read-out: Y4 cAMP EC50

T2 sequence (P50391 whole entry): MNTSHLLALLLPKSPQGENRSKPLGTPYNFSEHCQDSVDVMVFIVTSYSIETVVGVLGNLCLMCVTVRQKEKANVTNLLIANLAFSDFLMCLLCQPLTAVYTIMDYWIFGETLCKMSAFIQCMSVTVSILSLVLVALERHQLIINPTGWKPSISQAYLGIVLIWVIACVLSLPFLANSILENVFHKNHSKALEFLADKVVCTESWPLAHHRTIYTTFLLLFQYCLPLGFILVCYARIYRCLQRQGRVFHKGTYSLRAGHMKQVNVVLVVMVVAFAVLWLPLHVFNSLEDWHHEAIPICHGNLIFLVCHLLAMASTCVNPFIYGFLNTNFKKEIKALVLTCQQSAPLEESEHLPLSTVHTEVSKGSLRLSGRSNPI

| Compound | half-life ([1]; in vivo, 1 nmol/kg) [min] | half-life ([1]; in vivo, 30 nmol/kg) [min] | EC50 [2] [nM] | EC50 [3] [nM] | half-life ([1]; in vivo, 6 nmol/kg) [min] | half-life ([1]; 7 nmol/kg) [min] | EC50 [2, 4] [nM] | EC50 [3, 5] [nM] | half-life ([1]; 10 nmol/kg) [min] |
| --- | --- | --- | --- | --- | --- | --- | --- | --- | --- |
| CC[C@H](C)[C@H](NC(=O)[C@H](Cc1ccc(O)cc1)NC(=O)[C@H](CCCNC(=N)N)NC(=O)[C@H](CCCNC(=N)N)NC(=O)[C@H](CC(C)C)NC(=O)[C@H](CC(=O)O)NC(=O)[C@H](C)NC(=O)[C@H](C)NC(=O)[C@H](Cc1ccc(O)cc1)NC(=O)[C@H](CCC(N)=O)NC(=O)[C@H](C)NC(=O)[C@H](CC(C)C)NC(=O)[C@H](CCC(N)=O)NC(=O)[C@H](CCC(=O)O)NC(=O)[C@@H]1CCCN1C(=O)[C@@H](NC(=O)[C@H](C)NC(=O)[C@H](CCCCNC(=O)COCCOCCNC(=O)COCCOCCNC(=O)CC[C@H](NC(=O)[C@H]1CC[C@H](CNC(=O)CCCCCCCCCCCCCCCCCCC(=O)O)CC1)C(=O)O)NC(=O)[C@H](CC(=O)O)NC(=O)CNC(=O)[C@@H]1CCCN1C(=O)[C@H](Cc1ccc(O)cc1)NC(=O)[C@@H](NC(=O)[C@@H]1CCCN1C(=O)[C@H](CCC(=O)O)NC(=O)[C@H](CC(C)C)NC(=O)[C@@H]1CCCN1)C(C)C)[C@@H](C)O)C(=O)N[C@@H](CC(N)=O)C(=O)N[C@@H](CC(C)C)C(=O)N[C@@H](CC(C)C)C(=O)N[C@H](C(=O)N[C@@H](CCCNC(=N)N)C(=O)N1CCC[C@H]1C(=O)N[C@@H](CCCNC(=N)N)C(=O)N[C@@H](Cc1ccc(O)cc1)C(N)=O)[C@@H](C)O [SEQ ID NO: 29, N-epsilon11-[2-(2-{2-[2-(2-{2-[(S)-4-Carboxy-4-({trans-4-[(19-carboxynonadecanoylamino)methyl]cyclohexanecarbonyl}amino)butyrylamino]-ethoxy}ethoxy)acetylamino]ethoxy}ethoxy)acetyl][Lys11,Leu17,Leu30]hPP2-36] (H-PLEPVYPGDK([AEEA-AEEA-γGlu-Trx-C20 diacid])ATPEQLAQYAADLRRYINLLTRPRY-NH2; N-terminus and C-terminus assumed) | 1380 | 1620 | > 1000 | 2 | – | – | – | – | – |
| CC[C@H](C)[C@H](NC(=O)[C@H](Cc1ccc(O)cc1)NC(=O)[C@H](CCCNC(=N)N)NC(=O)[C@H](CCCNC(=N)N)NC(=O)[C@H](CC(C)C)NC(=O)[C@H](CC(=O)O)NC(=O)[C@H](C)NC(=O)[C@H](C)NC(=O)[C@H](Cc1ccc(O)cc1)NC(=O)[C@H](CCC(N)=O)NC(=O)[C@H](C)NC(=O)[C@H](CC(C)C)NC(=O)[C@H](CCC(N)=O)NC(=O)[C@H](CCC(=O)O)NC(=O)[C@@H]1CCCN1C(=O)[C@@H](NC(=O)[C@H](C)NC(=O)[C@H](CC(N)=O)NC(=O)[C@H](CC(=O)O)NC(=O)CNC(=O)[C@@H]1CCCN1C(=O)[C@H](Cc1ccc(O)cc1)NC(=O)[C@@H](NC(=O)[C@@H]1CCCN1C(=O)[C@H](CCC(=O)O)NC(=O)[C@H](CC(C)C)NC(=O)[C@@H]1CCCN1C(=O)COCCOCCNC(=O)COCCOCCNC(=O)CC[C@H](NC(=O)[C@H]1CC[C@H](CNC(=O)CCCCCCCCCCCCCCCCCCC(=O)O)CC1)C(=O)O)C(C)C)[C@@H](C)O)C(=O)N[C@@H](CC(N)=O)C(=O)N[C@@H](CC(C)C)C(=O)N[C@@H](CC(C)C)C(=O)N[C@H](C(=O)N[C@@H](CCCNC(=N)N)C(=O)N1CCC[C@H]1C(=O)N[C@@H](CCCNC(=N)N)C(=O)N[C@@H](Cc1ccc(O)cc1)C(N)=O)[C@@H](C)O [SEQ ID NO: 56, N-alfa-[2-(2-{2-[2-(2-{2-[(S)-4-Carboxy-4-({trans-4-[(19-carboxynonadecanoylamino)methyl]cyclohexanecarbonyl}amino)butyrylamino]-ethoxy}ethoxy)acetylamino]ethoxy}ethoxy)acetyl][Leu17,Leu30]hPP2-36] ({C20 diacid-Trx-γGlu-AEEA-AEEA}-PLEPVYPGDNATPEQLAQYAADLRRYINLLTRPRY-NH2; C-terminus assumed) | – | – | > 1000 | 4 | 1320 | – | – | – | – |
| CC[C@H](C)[C@H](NC(=O)[C@H](Cc1ccc(O)cc1)NC(=O)[C@H](CCCNC(=N)N)NC(=O)[C@H](CCCNC(=N)N)NC(=O)[C@H](CC(C)C)NC(=O)[C@H](CC(=O)O)NC(=O)[C@H](C)NC(=O)[C@H](C)NC(=O)[C@H](Cc1ccc(O)cc1)NC(=O)[C@H](CCC(N)=O)NC(=O)[C@H](C)NC(=O)[C@H](CC(C)C)NC(=O)[C@H](CCC(N)=O)NC(=O)[C@H](CCC(=O)O)NC(=O)[C@@H]1CCCN1C(=O)[C@@H](NC(=O)[C@H](C)NC(=O)[C@H](CC(N)=O)NC(=O)[C@H](CC(=O)O)NC(=O)CNC(=O)[C@@H]1CCCN1C(=O)[C@H](Cc1ccc(O)cc1)NC(=O)[C@@H](NC(=O)[C@@H]1CCCN1C(=O)[C@H](CCC(=O)O)NC(=O)[C@H](CC(C)C)NC(=O)[C@@H]1CCCN1C(=O)COCCOCCNC(=O)COCCOCCNC(=O)CC[C@H](NC(=O)CCCCCCCCCCCCCCCCC(=O)O)C(=O)O)C(C)C)[C@@H](C)O)C(=O)N[C@@H](CC(N)=O)C(=O)N[C@@H](CC(C)C)C(=O)N[C@@H](CC(C)C)C(=O)N[C@H](C(=O)N[C@@H](CCCNC(=N)N)C(=O)N1CCC[C@H]1C(=O)N[C@@H](CCCNC(=N)N)C(=O)N[C@@H](Cc1ccc(O)cc1)C(N)=O)[C@@H](C)O [SEQ ID NO: 55, N-alfa-[2-(2-{2-[2-(2-{2-[(S)-4-Carboxy-4-(17-carboxyheptadecanoylamino)butyrylamino]ethoxy}ethoxy)acetylamino]-ethoxy}ethoxy)acetyl][Leu17,Leu30]hPP2-36] ({C18 diacid-γGlu-AEEA-AEEA}-PLEPVYPGDNATPEQLAQYAADLRRYINLLTRPRY-NH2; C-terminus assumed) | – | – | – | – | – | 1740 | > 1000 | 1 | – |
| CC[C@H](C)[C@H](NC(=O)[C@H](Cc1ccc(O)cc1)NC(=O)[C@H](CCCNC(=N)N)NC(=O)[C@H](CCCNC(=N)N)NC(=O)[C@H](CC(C)C)NC(=O)[C@H](CC(=O)O)NC(=O)[C@H](C)NC(=O)[C@H](C)NC(=O)[C@H](Cc1ccc(O)cc1)NC(=O)[C@H](CCC(N)=O)NC(=O)[C@H](C)NC(=O)[C@H](CC(C)C)NC(=O)[C@H](CCC(N)=O)NC(=O)[C@H](CCC(=O)O)NC(=O)[C@@H]1CCCN1C(=O)[C@@H](NC(=O)[C@H](C)NC(=O)[C@H](CC(N)=O)NC(=O)[C@H](CC(=O)O)NC(=O)CNC(=O)[C@@H]1CCCN1C(=O)[C@H](Cc1ccc(O)cc1)NC(=O)[C@@H](NC(=O)[C@@H]1CCCN1C(=O)[C@H](CCC(=O)O)NC(=O)[C@H](CC(C)C)NC(=O)[C@@H]1CCCN1)C(C)C)[C@@H](C)O)C(=O)N[C@@H](CC(N)=O)C(=O)N[C@@H](CC(C)C)C(=O)N[C@@H](CC(C)C)C(=O)N[C@H](C(=O)N[C@@H](CCCNC(=N)N)C(=O)N1CCC[C@H]1C(=O)N[C@@H](CCCCNC(=O)COCCOCCNC(=O)COCCOCCNC(=O)CC[C@H](NC(=O)[C@H]1CC[C@H](CNC(=O)CCCCCCCCCCCCCCCCCCC(=O)O)CC1)C(=O)O)C(=O)N[C@@H](Cc1ccc(O)cc1)C(N)=O)[C@@H](C)O [SEQ ID NO: 48, N-epsilon35-[2-(2-{2-[2-(2-{2-[(S)-4-Carboxy-4-({trans-4-[(19-carboxynonadecanoylamino)methyl]cyclohexanecarbonyl}amino)butyrylamino]-ethoxy}ethoxy)acetylamino]ethoxy}ethoxy)acetyl][Leu17,Leu30,Lys35]hPP2-36] (H-PLEPVYPGDNATPEQLAQYAADLRRYINLLTRPK([AEEA-AEEA-γGlu-Trx-C20 diacid])Y-NH2) | – | – | – | – | – | – | > 1000 | > 1000 | 5580 |
